One assay has as its system NHDFs and HUVECs. The experiment in a line: Induction of internal regenerating factors in co-culture with NHDFs and HUVECs. In kind it is cell-based, human.
Assay [1] concerns normal human aortic smooth muscle cells (AoSMCs). Description: Promotion of cAMP production in AoSMC culture. The class given is cell-based. The note with it: Ao-SMCs, 72 hours of culture. As to the method:
Cells (produceed by Lonza, purchased from Takara Bio Inc., product name: normal human aortic smooth muscle cells (AoSMCs), product code: CC-2571) were cultured in a medium (produced by Lonza, purchased from Takara Bio Inc., product name: smooth muscle cell medium kit-2 (5% FBS), SmGM™-2 Bullet Kit™, product code: CC-3182) for 72 hours. To the culture medium at the number of cells of 4.0×10^5 cells which was rendered to be serum free, Compound 1 dissolved in DMSO was added so as to be 100 nM or 1000 nM. As a control, the same amount of DMSO was added to the culture medium. After 72 hours of culture, the supernatant was recovered and cAMP in the culture medium was measured with the cAMP EIA kit Code. 581001.

Structures are written as SMILES. Marks after values point to notes of the source that are not given here.

`O=C(O)COc1cccc2c1CCC=C2CCO/N=C(\c1ccccc1)c1cccnc1` [Compound 1, (E)-[5-[2-[1-phenyl-1-(3-pyridyl)methylidenaminoxy]ethyl]-7,8-dihydronaphthalen-1-yloxy]acetic acid]: in the assay with NHDFs and HUVECs, the “induction of internal regenerating factors (HGF, VEGF, EGF, IGF-1, SDF-1, G-CSF)” value was “induce”. For the same compound, the “cAMP in the culture medium, Average” value in assay [1] (100 nM) was 50.6* nM; in assay [1] (1000 nM), 105.4* nM.

(Values after US9968716B2, “Drug-eluting stent graft” (Ono Pharmaceutical Co., Ltd., priority 2013, dated 2018).)
